Literature values, collected in article PMC2593936 (Bioorganic & medicinal chemistry, 2008).
Marks after values point to notes of the source that are not given here.

Biological target: T1, human A3AR (Homo sapiens, UniProt P0DMS8)
T1 sequence (P0DMS8 1-318): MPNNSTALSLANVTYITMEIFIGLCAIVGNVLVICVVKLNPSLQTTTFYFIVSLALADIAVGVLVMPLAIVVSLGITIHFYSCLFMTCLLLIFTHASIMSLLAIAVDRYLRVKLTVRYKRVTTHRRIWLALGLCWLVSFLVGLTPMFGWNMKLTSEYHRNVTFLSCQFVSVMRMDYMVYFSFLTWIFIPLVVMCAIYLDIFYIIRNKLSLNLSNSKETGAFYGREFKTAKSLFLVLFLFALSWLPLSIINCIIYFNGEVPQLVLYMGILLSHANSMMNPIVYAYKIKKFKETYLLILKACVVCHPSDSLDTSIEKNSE
Conditions: relative to full agonist NECA at 10 μM

CNC(=O)[C@@]12C[C@@H]1[C@@H](n1cnc3c(NCc4cccc(I)c4)nc(Cl)nc31)[C@H](O)[C@@H]2O [Compound 7]
%Efficacy A3: 100 ^c %
